In patent US9242984B2, “Pyrazolyl derivatives as Syk inhibitors” (Merck Sharp & Dohme Corp., priority 2012, dated 2016):
pIC50: −log10 of the molar value.

Target: T1, recombinant human Syk (GST-hSyk fusion protein) (Homo sapiens, UniProt P43405)
T1 construct: purchased Carna Biosciences 08-176
Assay: Homogeneous Time-Resolved Fluorescence (HTRF) assay for the recombinant human Syk enzyme
Type: biochemical
Settings: IC50 class; 10-dose titration, 25 μM ATP; read-out: rhSYK Activity
Method in brief: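 IC50 came from a four-parameter fit over ten doses, 10 μM to 0.508 nM, with HTRF read-out (Eu-anti-pTyr antibody, SA-APC, EDTA stop, 30 min). The enzyme, 5 pM GST-hSyk, met compound for 10 min, then phosphorylated 250 nM biotin-peptide with 25 μM ATP and 5 mM Mg for 45 min at room temperature, pH 7.5.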

How did the pIC50 turn out when Cc1cc(Nc2nccc(C)n2)cc(-c2cnn(CC3(O)CCOCC3)c2)c1 [Example 12.13, 4-[(4-{3-methyl-5-[(4-methylpyrimidin-2-yl)amino]phenyl}-1H-pyrazol-1-yl)methyl]-tetrahydro-2H-pyran-4-ol] was run?
The pIC50 was 6.00 to 7.00.

How did the pIC50 turn out when Cc1cc(Nc2nccc(C(F)F)n2)cc(-c2cnn(CC3CCNC(=O)O3)c2)c1 (stereo not shown) [Example 2.81, 6-{[4-(3-{[4-(difluoromethyl)pyrimidin-2-yl]amino}-5-methylphenyl)-1H-pyrazol-1-yl]methyl}-1,3-oxazinan-2-one] was run?
Its pIC50 is at least 7.00.

Cc1cc(Nc2nccc(C(F)(F)F)n2)cc(-c2cnn(CC(C)(O)C(N)=O)c2)c1 (stereo not shown) [Example 8.23, 2-hydroxy-2-methyl-3-[4-(3-methyl-5-{[4-(trifluoromethyl)-pyrimidin-2-yl]amino}-phenyl)-1H-pyrazol-1-yl]propanamide] was tested. Which pIC50 did it give?
Its pIC50 is at least 7.00.

With CC(=O)Nc1cc(Nc2nccc(C(F)(F)F)n2)cc(-c2cnn(C3CCC(C(=O)O)CC3)c2)c1 (stereo not shown) [Example 1.53, 4-{4-[3-(acetylamino)-5-{[4-(trifluoromethyl)pyrimidin-2-yl]amino}phenyl]-1H-pyrazol-1-yl}cyclohexanecarboxylic acid] as the compound, how does the pIC50 read?
The pIC50 was at least 7.00.

How did the pIC50 turn out when COC(=O)C(C)n1cc(-c2cc(C)cc(Nc3nccc(C(F)(F)F)n3)c2)cn1 (stereo not shown) [Example 3.29, methyl 2-[4-[3-methyl-5-{[4-(trifluoromethyl)-pyrimidin-2-yl]amino}-phenyl)-1H-pyrazol-1-yl]propanoate] was run?
The pIC50 was at least 7.00.

With Cc1cc(Nc2nccc(C(F)(F)F)n2)cc(-c2cnn(C(C)C(O)C(N)=O)c2)c1 (stereo not shown) [Example 7.6, 2-hydroxy-3-[4-(3-methyl-5-{[4-(trifluorometh-yl)pyrimidin-2-yl]amino}-phenyl)-1H-pyrazol-1-yl]butanamide] as the compound, how does the pIC50 read?
Its pIC50 is at least 7.00.

How did the pIC50 turn out when Cc1cc(Nc2nccc(C(F)(F)F)n2)cc(-c2cnn(CS(N)(=O)=O)c2)c1 [Example 3.39, 1-[4-(3-methyl-5-{[4-(trifluoromethyl)pyrimidin-2-yl]amino}-phenyl)-1H-pyrazol-1-yl]methane-sulfonamide] was run?
The pIC50 was at least 7.00.

How did the pIC50 turn out when “N-[2-methyl-6-(1-methyl-1H-pyrazol-4-yl)pyridin-4-yl]-4-(trifluoromethyl)-pyrimidin-2-amine [Example 1.43]” was run?
The pIC50 was 6.00 to 7.00.

With Cc1cc(Nc2nccc(C(F)F)n2)cc(-c2cnn(CC3OC(=O)NC34CC4)c2)c1 (stereo not shown) [Example 3.94, 7-{[4-(3-{[4-(difluoromethyl)pyrimidin-2-yl]amino}-5-methylphenyl)-1H-pyrazol-1-yl]methyl}-6-oxa-4-azaspiro[2.4]heptan-5-one] as the compound, how does the pIC50 read?
The pIC50 was at least 7.00.

With Cc1cc(Nc2cc(C(F)(F)F)ccn2)nc(-c2cnn(CC3CNC(=O)O3)c2)c1 (stereo not shown) [Example 1.29, 5-{[4-(4-methyl-6-{[4-(trifluoromethyl)pyridin-2-yl]amino}pyridin-2-yl)-1H-pyrazol-1-yl]methyl}-1,3-oxazolidin-2-one] as the compound, how does the pIC50 read?
Its pIC50 is at least 7.00.

With Cc1cc(Nc2nccc(C(F)(F)F)n2)cc(-c2cnn(C(C)C(N)=O)c2)c1 (stereo not shown) [Example 8.20, 2-[4-(3-methyl-5-{[4-(trifluorometh-yl)pyrimidin-2-yl]amino}phenyl)-1H-pyrazol-1-yl]propanamide] as the compound, how does the pIC50 read?
The pIC50 was at least 7.00.

With Cc1cc(Nc2ncccn2)cc(-c2cnn(CC3CNC(=O)O3)c2)c1 (stereo not shown) [Example 3.115, 5-({4-[3-methyl-5-(pyrimidin-2-ylamino)phenyl]-1H-pyrazol-1-yl}methyl)-1,3-oxazolidin-2-one] as the compound, how does the pIC50 read?
The pIC50 was at least 7.00.

With Cc1cc(Nc2nccc(C(F)F)n2)cc(-c2cnn(CC3CC(=O)NC34CC4)c2)c1 (stereo not shown) [Example 3.90, 7-{[4-(3-{[4-(difluoromethyl)pyrimidin-2-yl]amino}-5-methylphenyl)-1H-pyrazol-1-yl]methyl}-4-azaspiro[2.4]heptan-5-one] as the compound, how does the pIC50 read?
The pIC50 was at least 7.00.

With Cc1cc(Nc2nccc(C(C)(F)F)n2)cc(-c2cn[nH]c2)c1 [Example 1.47, 4-(1,1-difluoroethyl)-N-[3-methyl-5-(1H-pyrazol-4-yl)phenyl]pyrimidin-2-amine] as the compound, how does the pIC50 read?
Its pIC50 is at least 7.00.

How did the pIC50 turn out when Cc1cc(Nc2ncc(F)c(C(F)F)n2)cc(-c2cnn(CC3OC(=O)NC3C)c2)c1 (single isomer, unassigned) [Example 23.20, 5-{[4-(3-{[4-(difluoromethyl)-5-fluoropyrimidin-2-yl]amino}-5-methylphenyl)-1H-pyrazol-1-yl]methyl}-4-methyl-1,3-oxazolidin-2-one] was run?
The pIC50 was at least 7.00.

Cc1cc(Nc2ncc(F)c(C(F)F)n2)cc(-c2cnn(CC(C)(O)CC#N)c2)c1 (stereo not shown) [Example 20.6, 4-[4-(3-{[4-(difluoromethyl)-5-fluoropyrimidin-2-yl]amino}-5-methylphenyl)-1H-pyrazol-1-yl]-3-hydroxy-3-methylbutanenitrile] was tested. Which pIC50 did it give?
Its pIC50 is at least 7.00.

How did the pIC50 turn out when Cc1cc(Nc2nccc(C(F)F)n2)cc(-c2cnn(CC(O)C3CCCNC3)c2)c1 (stereo not shown) [Example 5.34, 2-[4-(3-{[4-(difluoromethyl)pyrimidin-2-yl]amino}-5-methylphenyl)-1H-pyrazol-1-yl]-1-piperidin-3-ylethanol] was run?
The pIC50 was at least 7.00.

How did the pIC50 turn out when Cc1cc(Nc2nccc(C(F)F)n2)cc(-c2cnn(CC(O)CF)c2)c1 (stereo not shown) [Example 5.19, 1-[4-(3-{[4-(difluoromethyl)pyrimidin-2-yl]amino}-5-methylphenyl)-1H-pyrazol-1-yl]-3-fluoropropan-2-ol] was run?
Its pIC50 is at least 7.00.

With CNC(=O)[C@@H](O)Cn1cc(-c2cc(C)cc(Nc3nccc(C(F)(F)F)n3)c2)cn1 [Example 6.11, (2S)-2-hydroxy-N-methyl-3-[4-(3-methyl-5-{[4-(trifluorometh-yl)pyrimidin-2-yl]amino}phenyl)-1H-pyrazol-1-yl]propanamide] as the compound, how does the pIC50 read?
Its pIC50 is at least 7.00.

With Cc1ccnc(Nc2cccc(-c3cnn(CCC(=O)O)c3)n2)c1 [Example 1.18, 3-(4-{6-[(4-methylpyridin-2-yl)amino]pyridin-2-yl}-1H-pyrazol-1-yl)propanoic acid] as the compound, how does the pIC50 read?
Its pIC50 is 6.00 to 7.00.

With Cc1cc(Nc2nccc(C(F)F)n2)cc(-c2cnn(CC3CCNC(=O)O3)c2)c1 (stereo not shown) [Example 2.78, 6-{[4-(3-{[4-(difluoromethyl)pyrimidin-2-yl]amino}-5-methylphenyl)-1H-pyrazol-1-yl]methyl}-1,3-oxazinan-2-one] as the compound, how does the pIC50 read?
Its pIC50 is at least 7.00.

With Cc1cc(Nc2nccc(C(C)(F)F)n2)cc(-c2cnn(CC(C)(O)CC#N)c2)c1 (stereo not shown) [Example 20.9, 4-[4-(3-{[4-(1,1-difluoroethyl)pyrimidin-2-yl]amino}-5-methylphenyl)-1H-pyrazol-1-yl]-3-hydroxy-3-methylbutanenitrile] as the compound, how does the pIC50 read?
Its pIC50 is at least 7.00.

Cc1cc(Nc2nccc(C)n2)cc(-c2cnn(C[C@H](O)C(N)=O)c2)c1 [Example 6.3, (2S)-2-hydroxy-3-(4-{3-methyl-5-[(4-methylpyrimidin-2-yl)amino]phenyl}-1H-pyrazol-1-yl)propanamide] was tested. Which pIC50 did it give?
The pIC50 was at least 7.00.

With Cc1cc(Nc2nccc(C(F)(F)F)n2)cc(-c2cnn(CC3CN(C)C(=O)O3)c2)c1 (stereo not shown) [Example 3.46] as the compound, how does the pIC50 read?
Its pIC50 is at least 7.00.

COc1ccnc(Nc2cc(C)cc(-c3cnn(C[C@](C)(O)CO)c3)c2)n1 [Example 2.88, (2S)-3-(4-{3-[(4-methoxypyrimidin-2-yl)amino]-5-methylphenyl}-1H-pyrazol-1-yl)-2-methylpropane-1,2-diol] was tested. Which pIC50 did it give?
The pIC50 was at least 7.00.

Cc1cc(Nc2nccc(C(C)(F)F)n2)cc(-c2cnn(CC3OC(=O)NC3(C)C)c2)c1 (stereo not shown) [Example 3.101, 5-{[4-(3-{[4-(1,1-difluoroethyl)pyrimidin-2-yl]amino}-5-methylphenyl)-1H-pyrazol-1-yl]methyl}-4,4-dimethyl-1,3-oxazolidin-2-one] was tested. Which pIC50 did it give?
Its pIC50 is at least 7.00.

Cc1cc(Nc2nccc(C(C)(F)F)n2)cc(-c2cnn(CC(C)(O)C(C)(C)O)c2)c1 (stereo not shown) [Example 22.4, 1-[4-(3-{[4-(1,1-difluoroethyl)pyrimidin-2-yl]amino}-5-methylphenyl)-1H-pyrazol-1-yl]-2,3-dimethylbutane-2,3-diol] was tested. Which pIC50 did it give?
The pIC50 was at least 7.00.

O=C1NCC(Cn2cc(-c3cccc(Nc4cc(C(F)F)ccn4)n3)cn2)O1 (stereo not shown) [Example 3.82, 5-{[4-(6-{[4-(difluoromethyl)pyridin-2-yl]amino}pyridin-2-yl)-1H-pyrazol-1-yl]methyl}-1,3-oxazolidin-2-one] was tested. Which pIC50 did it give?
Its pIC50 is at least 7.00.

Cc1cc(Nc2nccc(C(F)(F)F)n2)cc(-c2cnn(CC(=O)N3CCCC3)c2)c1 [Example 3.27, N-{3-methyl-5-[1-(2-oxo-2-pyrrolidin-1-ylethyl)-1H-pyrazol-4-yl]phenyl}-4-(trifluoromethyl)pyrimidin-2-amine] was tested. Which pIC50 did it give?
Its pIC50 is at least 7.00.

Cc1cc(Nc2nccc(C(F)F)n2)cc(-c2cnn(CC3OC(=O)NC3C)c2)c1 (single isomer, unassigned) [Example 23.9, 5-{[4-(3-{[4-(difluoromethyl)pyrimidin-2-yl]amino}-5-methylphenyl)-1H-pyrazol-1-yl]methyl}-4-methyl-1,3-oxazolidin-2-one] was tested. Which pIC50 did it give?
The pIC50 was at least 7.00.

Cc1ccnc(Nc2cccc(-c3cnn(C[C@](C)(O)CO)c3)c2)n1 [Example 2.95, (2S)-2-methyl-3-(4-{3-[(4-methylpyrimidin-2-yl)amino]phenyl}-1H-pyrazol-1-yl)propane-1,2-diol] was tested. Which pIC50 did it give?
Its pIC50 is 6.00 to 7.00.

With Cc1cc(Nc2nccc(C(F)F)n2)cc(-c2cnn(CC(C)(C)NC(=O)NC(C)(C)C)c2)c1 [Example 27.7, 1-tert-butyl-3-{2-[4-(3-{[4-(difluoromethyl)pyrimidin-2-yl]amino}-5-methylphenyl)-1H-pyrazol-1-yl]-1,1-dimethylethyl}urea] as the compound, how does the pIC50 read?
Its pIC50 is at least 7.00.

COc1ccnc(Nc2cc(C)cc(-c3cnn(C[C@@H](O)C(=O)O)c3)c2)n1 [Example 11.8, (2R)-2-hydroxy-3-(4-{3-[(4-methoxy-pyrimidin-2-yl)-amino]-5-methyl-phenyl}-1H-pyrazol-1-yl)propanoic acid] was tested. Which pIC50 did it give?
Its pIC50 is at least 7.00.

How did the pIC50 turn out when Cc1cc(Nc2nccc(C)n2)cc(-c2cnn(C(C)(C)C(N)=O)c2)c1 [Example 8.10, 2-methyl-2-(4-{3-methyl-5-[(4-methyl-pyrimidin-2-yl)amino]-phenyl}-1H-pyrazol-1-yl)propanamide] was run?
The pIC50 was 6.00 to 7.00.
